Measured values: article PMC10587737, “Dracorhodin targeting CMPK2 attenuates inflammation: A novel approach to sepsis therapy” (Clinical and Translational Medicine, 2023)

Key:
CMPK2 [1] = biological target: T1, CMPK2 (Homo sapiens, UniProt Q5EBM0); test: Ultrafiltration-affinity mass spectrometry screening (FC, CMPK2 vs BSA); format: binding; set-up: the N‐terminus was truncated by 22 amino acids; 6xHis (C); made in house; host or cells: FreeStyle 293-F cells (pTT5 vector); conditions: ratio of MS response CMPK2 vs BSA; for FC Negative: negative ion mode; for FC Positive: positive ion mode
T1 sequence (Q5EBM0 22-449): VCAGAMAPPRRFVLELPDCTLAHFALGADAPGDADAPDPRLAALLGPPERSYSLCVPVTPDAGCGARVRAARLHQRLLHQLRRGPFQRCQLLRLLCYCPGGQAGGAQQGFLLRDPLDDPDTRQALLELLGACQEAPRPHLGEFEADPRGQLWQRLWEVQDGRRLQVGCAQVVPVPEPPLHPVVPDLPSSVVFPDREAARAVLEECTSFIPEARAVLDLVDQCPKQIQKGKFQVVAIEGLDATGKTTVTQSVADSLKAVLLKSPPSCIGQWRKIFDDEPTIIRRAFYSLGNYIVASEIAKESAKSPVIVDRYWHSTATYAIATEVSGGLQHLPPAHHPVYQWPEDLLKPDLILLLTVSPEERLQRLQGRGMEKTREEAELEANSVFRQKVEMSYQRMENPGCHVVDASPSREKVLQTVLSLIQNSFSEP
Method: The purified kinase CMPK2 was incubated with the six cocktails for 30 min at 37°C in a suitable buffer solution. In the compound cocktail, each compound concentration was 1 μM, and the concentration of the kinase CMPK2 was set at 5 μM. Each of the above incubation solutions was added to a 0.5 mL 10 kDa ultrafiltration tube (Amicon μltra‐0.5 10K Centrifugal Filter Devices, Millipore), and four experimental replicates were conducted for each CMPK2 and BSA pair. The 10 kDa ultrafiltration tube was centrifuged with the incubation solution at 13 000 × g for 20 min at 4°C. Centrifugation was stopped when the solution volume was approximately 100 μL, and then the mixture was washed five times with cold ammonium acetate (150 mM, pH 7.5). For affinity selection, 100 μL of the mixture was transferred after centrifugation and rinsed into a new eppendorf tube. […] The protein precipitate was discarded and the liquid was concentrated with a N2 stream. The residue was re‐dissolved in 50% methanol before injection. BSA samples were processed in a manner parallel to that of CMPK2 samples.
Sample measurement was detected by using an UHPLC instrument (Shimadzu) combined with a Triple TOF 5600^+ MS (SCIEX). Chromatographic separation was conducted with an Acquity UPLC BEH C18 column (1.7 μm, 2.1 × 100 mm, Waters) at a temperature maintained at 40°C and a flow rate of 0.3 mL/min, with mobile phases of water–0.1% formic acid (A) and acetonitrile (B). The linear gradient elution profile was as follows: 0−2 min, 5% B; 2−12 min, 5−30% B; 12−25 min, 30−90% B; 25−30 min, 90% B; and re‐equilibration for 5 min. Subsequently, the gradient was recovered to the initial conditions at the final 1 min. Whether it was a test sample or a quality control (QC) sample, each injection volume was 5 μL.
Briefly, the chromatographic peaks of each bound ligand were extracted using PeakView with identification criteria of precise mass measurement deviation and retention time tolerance of 5 ppm and 0.1 min, respectively. The MS response of each ligand was represented with the integrated peak area extracted by the corresponding extract ion chromatogram. The effective hits were selected on the basis of fold change (FC) value ≥ 2, p value < .05 and cyclic voltammetry (CV) ≤ 30% and were identified as candidate ligands of CMPK2. By extracting the m/z of individual standards from the acquired MS/MS spectrum, the decimal point of RT was used to distinguish the ambiguous compound peaks in the cocktails.
The experimental samples were injected into a UHPLC‐Q‐TOF‐MS system. First, total ion chromatograms (TIC) reflected the general overview of all samples (Supporting Information Figure S2A). […] Among the groups, each sample with a CV more than 30% was considered an abnormal sample and was not considered in the subsequent statistical analysis. In addition, the p value of each sample between the groups was calculated by MetaboAnalyst 5.0, and the significance of differences was determined. In the ultrafiltration‐affinity mass spectrometry profiling, we calculated FC, which is defined as the ratio of the MS response between the compound detected in the CMPK2 and BSA incubation system (Supporting Information Figure S2C,D). […] To select small‐molecule ligands with strong affinity, we determined the screening criteria to be FC ≥ 2. Affinity MS analysis generated a set of raw data, and the compounds that met the pre‐judgment criteria (FC ≥ 2, p < .05) were selected as compound hits (Supporting Information Figure S2).

CMPK2 [2] = biological target: T1, CMPK2; test: CMPK2 kinase activity assay (ADP-GLO); format: biochemical; conditions: ligand concentration 10 μM, luminescence; for inhibition at 10 µM: read-out: CMPK2 inhibition
Method: The range of concentrations used to investigate the effect of small‐molecule ligands on CMPK2 activity was 0.1–150 μM. Each data point contains three biological replicates.
CMPK2 activity was measured by the ADP‐GLO kinase assay according to the guidelines specified in the manufacturer's instructions. In the activity assay, the amount of ADP formed in the CMPK2 reaction was equal to the ATP consumption and proportional to the increase in luminescence generated in the luciferase reaction, which is the experimental principle shown in Figure 1I.

Row | Compound | FC Negative (CMPK2 [1]) | CMPK2 inhibition (CMPK2 [2]) | FC Positive (CMPK2 [1]) | inhibition at 10 µM (CMPK2 [2]) | FC value (CMPK2 [1]; Figure S3A)
1 | CC(C)=CCCC(C)(O)[C@H]1CC[C@]2(C)[C@@H]1[C@H](O)C[C@@H]1[C@@]3(C)CC[C@H](O)C(C)(C)[C@@H]3CC[C@]12C (stereo in doubt) [compound 368, Protopanaxadiol] | 3.70 | more than 50% |  |  | 
2 | O=c1c(O[C@@H]2O[C@H](CO)[C@H](O)[C@H](O)[C@H]2O)c(-c2ccc(O)c(O)c2)oc2cc(O)cc(O)c12 [compound 400, Hyperoside] | 6.41 |  | 4.74 | > 50% | 
3 | COc1ccc2ccc(=O)oc2c1 [compound 792, 7-methoxy coumarin] |  |  | 3.13 | > 50% | 
4 | O=c1ccn([C@H]2C[C@H](O)[C@@H](COP(=O)(O)O)O2)c(=O)[nH]1 [dUMP, reference compound] |  |  | 1.17 |  | 1.9
